What was measured:
Histone deacetylase = experiment: Inhibition of HDAC in human HeLa cell nuclear extracts using Fluor de Lys as substrate by fluorescence assay; type: protein assay
[1] = molecular target: Histone deacetylase (Homo sapiens) (UniProt Q13547+O15379+Q9UBN7+Q92769+Q9UQL6+Q8WUI4+Q9BY41+Q96DB2+P56524+Q9UKV0+Q969S8); conditions: HeLa, at 1 µM
Description: Inhibition of HDAC in human HeLa cell nuclear extracts using Fluor de Lys as substrate at 1 uM by fluorescence assay

MCF7 = experiment: Antiproliferative activity against human MCF7 cells after 48 hrs by sulforhodamine B assay; type: functional; conditions: MCF7, 48 h
NCI-H460 = experiment: Antiproliferative activity against human NCI-H460 cells after 48 hrs by sulforhodamine B assay; type: functional; conditions: NCI-H460, 48 h
OVCAR-5 = experiment: Antiproliferative activity against human OVCAR5 cells after 48 hrs by sulforhodamine B assay; type: functional; conditions: OVCAR-5, 48 h
MDA-MB-435 = experiment: Antiproliferative activity against human MDA-MB-435 cells after 48 hrs by sulforhodamine B assay; type: functional; conditions: MDA-MB-435, 48 h
HCT-116 = experiment: Antiproliferative activity against human HCT116 cells after 48 hrs by sulforhodamine B assay; type: functional; conditions: HCT-116, 48 h

CCCNC(=S)Nc1cc(/C=C/C(=O)NO)ccc1OCCN(CC)CC
IC50 (Histone deacetylase): 210 nM
inhibition [1]: 82.9%

CCCCCNC(=O)Nc1cc(/C=C/C(=O)NO)ccc1OCCN(CC)CC
GI50 (MCF7): 290 nM
GI50 (NCI-H460): 870 nM
GI50 (OVCAR-5): 1340 nM
GI50 (MDA-MB-435): 830 nM
GI50 (HCT-116): 470 nM
IC50 (Histone deacetylase): 186 nM
inhibition [1]: 88.9%

CCCCNC(=O)Nc1cc(/C=C/C(=O)NO)ccc1OCCN(CC)CC
inhibition [1]: 80.7%

CCCNC(=S)Nc1cc(/C=C/C(=O)NO)ccc1SCCN(CC)CC
inhibition [1]: 76.2%

O=C(CCCCCCC(=O)Nc1ccccc1)NO [VORINOSTAT]
GI50 (MCF7): 450 nM
GI50 (MDA-MB-435): 880 nM
GI50 (HCT-116): 940 nM

CCCCCCNC(=S)Nc1cc(/C=C/C(=O)NO)ccc1SCCN(CC)CC
inhibition [1]: 72.2%

CCCCCCCNC(=S)Nc1cc(/C=C/C(=O)NO)ccc1OCCN(CC)CC
inhibition [1]: 69.8%

CCCCCNC(=O)Nc1cc(/C=C/C(=O)NO)ccc1SCCN(CC)CC
GI50 (MCF7): 400 nM
GI50 (NCI-H460): 940 nM
GI50 (OVCAR-5): 1800 nM
GI50 (MDA-MB-435): 990 nM
GI50 (HCT-116): 560 nM
IC50 (Histone deacetylase): 206 nM
inhibition [1]: 84.2%

CCCCCCNC(=O)Nc1cc(/C=C/C(=O)NO)ccc1SCCN(CC)CC
inhibition [1]: 79.6%

CCCCCCNC(=S)Nc1cc(/C=C/C(=O)NO)ccc1OCCN(CC)CC
IC50 (Histone deacetylase): 187 nM
inhibition [1]: 87.4%

CCCNC(=O)Nc1cc(/C=C/C(=O)NO)ccc1SCCN(CC)CC
IC50 (Histone deacetylase): 198 nM
inhibition [1]: 82.7%

CCCCCCCNC(=S)Nc1cc(/C=C/C(=O)NO)ccc1SCCN(CC)CC
inhibition [1]: 62.4%

CCCCCNC(=S)Nc1cc(/C=C/C(=O)NO)ccc1OCCN(CC)CC
GI50 (MCF7): 380 nM
GI50 (NCI-H460): 1080 nM
GI50 (OVCAR-5): 1560 nM
GI50 (MDA-MB-435): 1180 nM
GI50 (HCT-116): 720 nM
IC50 (Histone deacetylase): 216 nM
inhibition [1]: 90.5%

CCCCCCCNC(=O)Nc1cc(/C=C/C(=O)NO)ccc1OCCN(CC)CC
IC50 (Histone deacetylase): 410 nM
inhibition [1]: 83.6%

CCCCNC(=O)Nc1cc(/C=C/C(=O)NO)ccc1SCCN(CC)CC
GI50 (MCF7): 430 nM
GI50 (NCI-H460): 1550 nM
GI50 (OVCAR-5): 1750 nM
GI50 (MDA-MB-435): 1500 nM
GI50 (HCT-116): 590 nM
IC50 (Histone deacetylase): 172 nM
inhibition [1]: 84.5%

CCCCNC(=S)Nc1cc(/C=C/C(=O)NO)ccc1OCCN(CC)CC
GI50 (MCF7): 220 nM
GI50 (NCI-H460): 480 nM
GI50 (OVCAR-5): 1120 nM
GI50 (MDA-MB-435): 510 nM
GI50 (HCT-116): 350 nM
IC50 (Histone deacetylase): 130 nM
inhibition [1]: 88%

CCCCNC(=S)Nc1cc(/C=C/C(=O)NO)ccc1SCCN(CC)CC
inhibition [1]: 73.9%

CCCCCNC(=S)Nc1cc(/C=C/C(=O)NO)ccc1SCCN(CC)CC
inhibition [1]: 73.8%

CCCCc1nc2cc(/C=C/C(=O)NO)ccc2n1CCN(CC)CC [PRACINOSTAT]
GI50 (MCF7): 170 nM
GI50 (NCI-H460): 220 nM
GI50 (OVCAR-5): 610 nM
GI50 (MDA-MB-435): 480 nM
GI50 (HCT-116): 240 nM

CCCNC(=O)Nc1cc(/C=C/C(=O)NO)ccc1OCCN(CC)CC
IC50 (Histone deacetylase): 234 nM
inhibition [1]: 80%

CCCCCCNC(=O)Nc1cc(/C=C/C(=O)NO)ccc1OCCN(CC)CC
IC50 (Histone deacetylase): 304 nM
inhibition [1]: 87.5%

CCCCCCCNC(=O)Nc1cc(/C=C/C(=O)NO)ccc1SCCN(CC)CC
inhibition [1]: 48.7%

Reference: ChEMBL document CHEMBL2440014, “Design, synthesis and biological evaluation of di-substituted cinnamic hydroxamic acids bearing urea/thiourea unit as potent histone deacetylase inhibitors” (Bioorg Med Chem Lett, 2013)
